These are literature values, as cited in patent publication US20170007537A1, “PHARMACEUTICAL COMPOSITIONS OF ASENAPINE” (HETERO RESEARCH FOUNDATION, priority 2014, published 2017).

The conditions of this data set: when swallowed; oral tablet formulation.

Take `CN1C[C@H]2c3ccccc3Oc3ccc(Cl)cc3[C@@H]2C1.O=C(O)/C=C\C(=O)O` (racemic) [asenapine, (3aRS,12bRS)-5-Chloro-2-methyl-2,3,3a,12b-tetrahydro-1Hdibenzo[2,3:6,7]oxepino[4,5-c]pyrrole(2Z)-2-butenedioate (1:1)]: the absolute bioavailability is listed as less than 2%.
